The values below come from US12331068B2, “Compositions and methods for inhibiting CD73” (Peloton Therapeutics, Inc., priority 2018, dated 2025).

In general, IC50 refers to the point on the concentration scale where inhibition reaches its midpoint.

Structures are written as SMILES.

One test deals with T1, Human CD73 (Homo sapiens, UniProt P21589).
T1 construct: purchased R&D Systems; host or cells: CHO cells
T1 sequence (P21589 27-549): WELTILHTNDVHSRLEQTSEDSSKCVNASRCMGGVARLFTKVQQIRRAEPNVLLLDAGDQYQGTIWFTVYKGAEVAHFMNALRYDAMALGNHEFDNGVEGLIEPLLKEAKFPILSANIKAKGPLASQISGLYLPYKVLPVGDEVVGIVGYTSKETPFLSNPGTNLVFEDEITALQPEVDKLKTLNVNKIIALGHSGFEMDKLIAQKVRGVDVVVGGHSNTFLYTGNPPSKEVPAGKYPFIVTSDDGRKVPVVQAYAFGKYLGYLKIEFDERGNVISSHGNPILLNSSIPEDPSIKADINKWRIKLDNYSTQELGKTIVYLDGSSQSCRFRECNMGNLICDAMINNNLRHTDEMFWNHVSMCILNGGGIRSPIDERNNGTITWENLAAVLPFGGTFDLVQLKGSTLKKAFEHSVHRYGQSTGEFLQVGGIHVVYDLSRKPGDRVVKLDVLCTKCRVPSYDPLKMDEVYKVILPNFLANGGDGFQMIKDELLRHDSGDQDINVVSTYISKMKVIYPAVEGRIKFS
The test is described as follows: CD73 Enzyme Assay (EnzChek PNP/MESG kinetic readout of AMP hydrolysis). Conditions: 0.25 nM hCD73, 25 μM AMP; read-out: CD73 Enzyme Assay IC50. Type of test: biochemical. How it is done: A compound of the present disclosure (5 μL) was transferred to a 384-well assay plate. The compound was added in a 15 point, 3-fold serial dilution (300 μM to 0.0002 μM) in DMSO. […] The plate was immediately placed in a plate reader (Synergy 2 or Spark 10), and a reading was taken every minute for 10 to 20 minutes in a kinetic run at 360 nm. The linear portion of the curve was used to determine the observed rate (initial velocity). Low signal controls containing 100 μM adenosine 5′-(α,β-methylene) diphosphate and high signal controls containing no compound were measured for each plate.
IC50 values were calculated using Dotmatics template equation for 4-parameter fit. Results are expressed as % inhibition using the following equation: […]

In test [1] the target is T2, CD73 on U138 human neuroglioma cells (Homo sapiens, UniProt P21589).
T2 construct: U138 cells were obtained from ATCC and cultured in DMEM with 10% FBS; host or cells: U138 human neuroglioma cells
T2 sequence (P21589 27-549): T1 sequence (P21589 27-549)
The test is described as follows: CD73 Cell-Based Assay (inorganic phosphate from AMP, malachite green). The settings on record: AMP substrate, 2 hours at 37° C., read-out: CD73 Cell-Based assay IC50. How it is done: U138 human neuroglioma cells were used in these experiments. U138 cells were obtained from ATCC and cultured in DMEM with 10% FBS. 2500 cells were seeded into 96-well plate with 100 μL of media the day before the experiment. […] After washing, 100 μL of buffer was added to each well, then 100 μL of a mixture of AMP substrate (200 μM) and diluted compound was added to each well. The cells were incubated at 37° C. (with 5% CO2) for 2 hours. 50 μL of supernatant was transferred to a 96-well assay plate and the concentration of inorganic phosphate was determined using malachite green reagent (R&D System; Cat: DY996).

As to `N#Cc1c(Cl)nc2c(ccn2[C@@H]2O[C@H](COP(=O)(O)CP(=O)(O)O)[C@@H](O)[C@H]2O)c1NC1CC(F)(F)C1` [Compound 47], the IC50 (at Human CD73; in test [1]) was less than 10 nM each time.
For `N#Cc1c(Cl)nc2c(ncn2[C@@H]2O[C@H](COCP(=O)(O)O)[C@@H](O)[C@H]2O)c1NC1CCCC1` [Compound 55, ((((2R,3S,4R,5R)-5-(5-chloro-6-cyano-7-(cyclopentylamino)-3H-imidazo[4,5-b]pyridin-3-yl)-3,4-dihydroxytetrahydrofuran-2-yl)methoxy)methyl)phosphonic acid], the IC50 (at Human CD73; in test [1]) was less than 10 nM in each case.
Turning to `N#Cc1nc2c(ccn2[C@@H]2O[C@H](COP(=O)(O)CP(=O)(O)O)[C@@H](O)[C@H]2O)c(NC2CCCC2)c1Cl` [Compound 211], the IC50 (on Human CD73; in test [1]) was less than 10 nM throughout.
For `C[C@H](Nc1c(C#N)c(Cl)nc2c1ccn2[C@@H]1O[C@H](CS(=O)(=O)CP(=O)(O)O)[C@@H](O)[C@H]1O)c1ccc(C#N)cc1` [Compound 198], the IC50 (on Human CD73; in test [1]) was less than 10 nM each time.
As for `C[C@@H](Nc1c(C#N)c(Cl)nc2c1cnn2[C@@H]1O[C@H](CS(=O)(=O)CP(=O)(O)O)[C@@H](O)[C@H]1O)c1cccc(C#N)c1` [Compound 193], the IC50 (at Human CD73; in test [1]) was less than 10 nM in each case.
`N#Cc1c(Cl)nc2c(ncn2[C@@H]2O[C@H](COCP(=O)(O)O)[C@@H](O)[C@H]2O)c1N1CC2CCCC2C1` (stereo partly shown) [Compound 57]: the IC50 (on Human CD73; in test [1]) was less than 10 nM each time.
As to `N#Cc1c(Cl)nc2c(ccn2[C@@H]2O[C@H](CS(=O)(=O)CP(=O)(O)O)[C@@H](O)[C@@H]2F)c1N` [Compound 173], the results for the IC50 (at Human CD73; in test [1]) were 10 to 100 nM and more than 100 nM, respectively.
On the same counts, the results for `N#Cc1nc2c(ccn2[C@@H]2O[C@H](COCP(=O)(O)O)[C@@H](O)[C@H]2O)c(N2C[C@@H](F)[C@@H](F)C2)c1Cl` [Compound 103] are less than 10 nM and less than 10 nM.
For `N#Cc1c(Cl)nc2c(ccn2[C@@H]2O[C@H](CS(=O)(=O)CP(=O)(O)O)[C@@H](O)[C@H]2O)c1N[C@H]1CCC(F)(F)C1` [Compound 5], the IC50 (at Human CD73; in test [1]) was less than 10 nM throughout.
For `N#Cc1c(Cl)nc2c(ccn2[C@@H]2O[C@H](COP(=O)(O)CP(=O)(O)O)[C@@H](O)[C@@H]2F)c1NC1CCCC1` [Compound 216], the IC50 (on Human CD73; in test [1]) was less than 10 nM throughout.
With `N#Cc1nc2c(ccn2[C@@H]2O[C@H](CS(=O)(=O)CP(=O)(O)O)[C@@H](O)[C@H]2O)c(NC2CC(F)(F)C2)c1C#N` [Compound 177], the IC50 (at Human CD73; in test [1]) was less than 10 nM each time.
In the case of `N#Cc1c(Cl)nc2c(ccn2[C@@H]2O[C@H](COCP(=O)(O)O)[C@@H](O)[C@H]2O)c1NC1CC2CC2C1` (stereo partly shown) [Compound 26], the IC50 (at Human CD73; in test [1]) was less than 10 nM throughout.
With `N#Cc1c(Cl)nc2c(ccn2[C@@H]2O[C@H](COCP(=O)(O)O)[C@@H](O)[C@H]2O)c1N1CC2CCCC2C1` (stereo partly shown) [Compound 11], the IC50 (at Human CD73; in test [1]) was less than 10 nM in each case.
With `N#Cc1c(Cl)nc2c(c(F)cn2[C@@H]2O[C@H](CS(=O)(=O)CP(=O)(O)O)[C@@H](O)[C@H]2O)c1N1CCC(F)(F)C1` [Compound 152], the IC50 on Human CD73 was less than 10 nM; in test [1] it was more than 100 nM.
Turning to `CN(c1c(C#N)c(Cl)nc2c1ccn2[C@@H]1O[C@H](COCP(=O)(O)O)[C@@H](O)[C@H]1O)C1CC(F)(F)C1` [Compound 153], the figures for the IC50 (on Human CD73; in test [1]) were less than 10 nM and 10 to 100 nM, respectively.
With `C[C@H](Nc1c(C#N)c(Cl)nc2c1cnn2[C@@H]1O[C@H](CS(=O)(=O)CP(=O)(O)O)[C@@H](O)[C@H]1O)c1cccc(C#N)c1` [Compound 200], the half-maximal inhibitory concentration (IC50) (at Human CD73; in test [1]) was less than 10 nM in each case.
Turning to `N#Cc1nc2c(ccn2[C@@H]2O[C@H](CS(=O)(=O)CP(=O)(O)O)[C@@H](O)[C@H]2O)c(NC2CCCC2)c1Cl` [Compound 210], the IC50 (on Human CD73; in test [1]) was less than 10 nM in each case.
Regarding `N#Cc1c(Cl)nc2c(cnn2[C@@H]2O[C@H](COP(=O)(O)CP(=O)(O)O)[C@@H](O)[C@H]2O)c1NC1CC(F)(F)C1` [Compound 322], the IC50 (at Human CD73; in test [1]) was less than 10 nM in each case.
Regarding `N#Cc1c(Cl)nc2c(c(F)cn2[C@@H]2O[C@H](COCP(=O)(O)O)[C@@H](O)[C@H]2O)c1N1CCC(F)(F)C1` [Compound 151], the IC50 (at Human CD73; in test [1]) was less than 10 nM throughout.
`N#Cc1c(Cl)nc2c(ccn2[C@@H]2O[C@H](COP(=O)(O)CP(=O)(O)O)[C@@H](O)[C@H]2O)c1NC1CCCC1` [Compound 3, (((((2R,3S,4R,5R)-5-(6-chloro-5-cyano-4-(cyclopentylamino)-1H-pyrrolo[2,3-b]pyridin-1-yl)-3,4-dihydroxytetrahydrofuran-2-yl)methoxy)(hydroxy)phosphoryl)methyl)phosphonic acid]: the IC50 (on Human CD73; in test [1]) was less than 10 nM in each case.
`N#Cc1c(Cl)nc2c(ccn2[C@@H]2O[C@H](COCP(=O)(O)O)[C@@H](O)[C@H]2O)c1NC1CC2(CC2)C1` [Compound 157]: the IC50 (on Human CD73; in test [1]) was less than 10 nM each time.
On to `N#Cc1nc2c(ccn2[C@@H]2O[C@H](COCP(=O)(O)O)[C@@H](O)[C@H]2O)c(N2C[C@@H](F)[C@@H](F)C2)c1C#N` [Compound 106], for which the IC50 (at Human CD73; in test [1]) was less than 10 nM throughout.
Regarding `N#Cc1c(Cl)nc2c(cnn2[C@@H]2O[C@H](COCP(=O)(O)O)[C@@H](O)[C@H]2O)c1N1CC[C@H](F)C1` [Compound 79], the IC50 (at Human CD73; in test [1]) was less than 10 nM throughout.
Consider `N#Cc1nc2c(ccn2[C@@H]2O[C@H](CS(=O)(=O)CP(=O)(O)O)[C@@H](O)[C@H]2O)c(N2CCC(F)(F)C2)c1Cl` [Compound 143], for which the IC50 (at Human CD73; in test [1]) was less than 10 nM throughout.
`C[C@@H](Nc1c(C#N)c(Cl)nc2c1ccn2[C@@H]1O[C@H](CS(=O)(=O)CP(=O)(O)O)[C@@H](O)[C@H]1O)c1cccc(C#N)c1` [Compound 179]: the IC50 (on Human CD73; in test [1]) was less than 10 nM in each case.
Consider `N#Cc1nc2c(ccn2[C@@H]2O[C@H](COCP(=O)(O)O)[C@@H](O)[C@H]2O)c(NC2CCCC2)c1Cl` [Compound 101], for which the IC50 (at Human CD73; in test [1]) was less than 10 nM in each case.
For the compound `N#Cc1c(Cl)nc2c(ccn2[C@@H]2O[C@H](CS(=O)(=O)CP(=O)(O)O)[C@@H](O)[C@@H]2F)c1NC1CCCC1` [Compound 170], the IC50 (at Human CD73; in test [1]) was less than 10 nM throughout.
For `C[C@@H](Nc1c(C#N)c(Cl)nc2c1ccn2[C@@H]1O[C@H](COP(=O)(O)CP(=O)(O)O)[C@@H](O)[C@H]1O)c1ccc(F)cn1` [Compound 222, (((((2R,3S,4R,5R)-5-(6-chloro-5-cyano-4-(((R)-1-(5-fluoropyridin-2-yl)ethyl)amino)-1H-pyrrolo[2,3-b]pyridin-1-yl)-3,4-dihydroxytetrahydrofuran-2-yl)methoxy)(hydroxy)phosphoryl)methyl)phosphonic acid], the IC50 (at Human CD73; in test [1]) was less than 10 nM throughout.
Consider `Cc1nc2c(ccn2[C@@H]2O[C@H](COP(=O)(O)CP(=O)(O)O)[C@@H](O)[C@H]2O)c(NC2CCCC2)c1C#N` [Compound 49], for which the IC50 (on Human CD73; in test [1]) was less than 10 nM throughout.
